Measurements reported in patent publication US9497970B2, “Pesticide compounds” (priority 2013, dated 2016).

Legend:
Type in all cases: in vivo
[1] = test system: Mediterranean Fruitfly (Ceratitis capitata); test: B.6 Mediterranean Fruitfly (Ceratitis capitata), microtiter plate insect diet; details: 120 h, 800 ppm, sprayed onto insect diet, 5 days, in comparison with untreated controls, read-out: mortality (egg and larval)
Protocol: B.6 Mediterranean Fruitfly (Ceratitis capitata)
For evaluating control of Mediterranean fruitfly (Ceratitis capitata) the test unit consisted of microtiter plates containing an insect diet and 50-80 C. capitata eggs.
(§1) The compounds were formulated using a solution containing 75% v/v water and 25% v/v DMSO. Different concentrations of formulated compounds were sprayed onto the insect diet at 5 μl, using a custom built micro atomizer, at two replications.
(§2) After application, microtiter plates were incubated at about 28±1° C. and about 80±5% relative humidity for 5 days. Egg and larval mortality was then visually assessed.

[2] = test system: Orchid thrips (dichromothrips corbetti); test: B.12 Orchid thrips (dichromothrips corbetti), floral-immersion technique; details: adult thrips on dipped orchid petals, 72 hours after treatment, in comparison with untreated controls
Protocol: B.12 Orchid thrips (dichromothrips corbetti)
Dichromothrips corbetti adults used for bioassay were obtained from a colony maintained continuously under laboratory conditions. For testing purposes, the test compound is diluted in a 1:1 mixture of acetone:water (vol:vol), plus Kinetic HV at a rate of 0.01% v/v.
Thrips potency of each compound was evaluated by using a floral-immersion technique. All petals of individual, intact orchid flowers were dipped into treatment solution and allowed to dry in Petri dishes. Treated petals were placed into individual resealable plastic along with about 20 adult thrips. All test arenas were held under continuous light and a temperature of about 28° C. for duration of the assay. After 3 days, the numbers of live thrips were counted on each petal. The percent mortality was recorded 72 hours after treatment.

[3] = test system: Diamond Back Moth (Plutella xylostella); test: B.1 Diamond Back Moth (Plutella xylostella), cabbage leaf dip; details: foliar, 500 ppm, 3rd instar larvae on dipped cabbage leaves, 72 hours after treatment, in comparison with untreated controls, read-out: mortality
Protocol: B.1 Diamond Back Moth (Plutella xylostella)
The active compound was dissolved at the desired concentration in a mixture of 1:1 (vol:vol) distilled water:aceteone. Surfactant (Kinetic HV) was added at a rate of 0.01% (vol/vol). The test solution was prepared at the day of use.
Leaves of cabbage were dipped in test solution and air-dried. Treated leaves were placed in petri dishes lined with moist filter paper and inoculated with ten 3rd instar larvae. Mortality was recorded 72 hours after treatment. Feeding damages were also recorded using a scale of 0-100%.

[4] = test system: Boll Weevil (Anthonomus grandis); test: B.3 Boll Weevil (Anthonomus grandis), microtiter plate insect diet; details: 120 h, 800 ppm, sprayed onto insect diet, 5 days, in comparison with untreated controls, read-out: mortality (egg and larval)
Protocol: B.3 Boll Weevil (Anthonomus grandis)
For evaluating control of boll weevil (Anthonomus grandis) the test unit consisted of 96-well-microtiter plates containing an insect diet and 5-10 A. grandis eggs.
as §1
After application, microtiter plates were incubated at about 25±1° C. and about 75±5% relative humidity for 5 days. Egg and larval mortality was then visually assessed.

[5] = test system: Tobacco Budworm (Heliothis virescens); test: B.7 Tobacco Budworm (Heliothis virescens) I, microtiter plate insect diet; details: 120 h, 800 ppm, sprayed onto insect diet, 5 days, in comparison with untreated controls, read-out: mortality (egg and larval)
Protocol: B.7 Tobacco Budworm (Heliothis virescens) I
For evaluating control of tobacco budworm (Heliothis virescens) the test unit consisted of 96-well-microtiter plates containing an insect diet and 15-25 H. virescens eggs. The compounds were formulated using a solution containing 75% v/v water and 25% v/v DMSO. Different concentrations of formulated compounds were sprayed onto the insect diet at 10 μl, using a custom built micro atomizer, at two replications.
as §2

[6] = test system: Yellow Fever Mosquito (Aedes aegypti); test: whole plant or invertebrate; details: 48 h, freshly hatched larvae in tap water, 2 days, in comparison with untreated controls, read-out: mortality (larval)
Protocol: B.11 Yellow Fever Mosquito (Aedes aegypti)
For evaluating control of yellow fever mosquito (Aedes aegypti) the test unit consisted of 96-well-microtiter plates containing 200 μl of tap water per well and 5-15 freshly hatched A. aegypti larvae.
The active compounds were formulated using a solution containing 75% (v/v) water and 25% (v/v) DMSO. Different concentrations of formulated compounds or mixtures were sprayed onto the insect diet at 2.5 μl, using a custom built micro atomizer, at two replications.

FC(F)(F)Oc1ccc(-c2onc3c2CCc2cc(/C=N/NC(=S)Nc4c(Cl)cc(Cl)cc4Cl)ccc2-3)cc1 [C-9, 1-(2,4,6-trichlorophenyl)-3-[(E)-[3-[4-(trifluoromethoxy)phenyl]-4,5-dihydrobenzo[g][2,1]benzoxazol-7-yl]methyleneamino]thiourea]
≥ 75%: mortality at 800 ppm [1] | mortality at 500 ppm [2]

Cc1ccc(Cl)cc1NC(=S)N/N=C/c1ccc2c(ccc3c2ncn3-c2ccc(OC(F)(F)F)cc2)c1 [C-21, 1-(5-chloro-2-methyl-phenyl)-3-[(E)-[3-[4-(trifluoromethoxy)phenyl]benzo[e]benzimidazol-7-yl]methyleneamino] thiourea]
≥ 75%: mortality at 500 ppm [3] | mortality at 800 ppm [4] | mortality at 800 ppm [1] | mortality at 800 ppm [5] | mortality at 500 ppm [2]

FC(F)(F)Oc1ccc(-n2cnc3c4ccc(/C=N/NC(=S)Nc5cccc6ccccc56)cc4ccc32)cc1 [C-29, 1-(2H-naphthalen-1-ylidene)-3-[[3-[4-(trifluoromethoxy)phenyl]-9aH-benzo[e]benzimidazol-7-ylidene]methylimino] thiourea]
≥ 75%: mortality at 500 ppm [3] | mortality at 800 ppm [4] | mortality at 800 ppm [1] | mortality at 800 ppm [5]

FC(F)(F)Oc1ccc(-n2cnc3c4ccc(/C=N/NC(=S)Nc5ccccc5Cl)cc4ccc32)cc1 [C-30, 3-(2-chlorophenyl)-1-[[3-[4-(trifluoromethoxy)phenyl]-8H-benzo[e]benzimidazol-7-ylidene]methylimino] isothiourea]
≥ 75%: mortality at 500 ppm [3] | mortality at 500 ppm [2]

Cc1cc(Cl)ccc1NC(=S)N/N=C/c1ccc2c(ccc3c2ncn3-c2ccc(OC(F)(F)F)cc2)c1 [C-38, 1-(4-chloro-2-methyl-phenyl)-3-[(E)-[3-[4-(trifluoromethoxy)phenyl]benzo[e]benzimidazol-7-yl]methyleneamino] thiourea]
≥ 75%: mortality at 500 ppm [3] | mortality at 800 ppm [4] | mortality at 800 ppm [1] | mortality at 800 ppm [5] | mortality at 500 ppm [2]

CC(C)c1ccccc1NC(=S)N/N=C/c1ccc2c(ccc3c2ncn3-c2ccc(OC(F)(F)F)cc2)c1 [C-45, 1-(2-isopropylphenyl)-3-[[3-[4-(trifluoromethoxy)phenyl]-3aH-benzo[e]benzimidazol-7-ylidene]methylimino] thiourea]
≥ 75%: mortality at 500 ppm [3] | mortality at 800 ppm [4] | mortality at 800 ppm [1] | mortality at 800 ppm [5] | mortality at 500 ppm [2]

Cc1cccc(C)c1NC(=S)N/N=C/c1ccc2c(ccc3c2cnn3-c2ccc(OC(F)(F)F)cc2)c1 [C-46, (E)-N-(2,6-dimethylphenyl)-2-((3-(4-(trifluoromethoxy)phenyl)-3H-benzo[e]indazol-7-yl)methylene)hydrazinecarbothioamide]
≥ 75%: mortality at 500 ppm [3] | mortality at 800 ppm [4] | mortality at 800 ppm [1] | mortality at 800 ppm [5]

CCc1ccccc1NC(=S)N/N=C/c1ccc2c(ccc3c2cnn3-c2ccc(OC(F)(F)F)cc2)c1 [C-50, 1-(2-ethylphenyl)-3-[[3-[4-(trifluoromethoxy)phenyl]-5H-benzo[e]indazol-7-ylidene]methylimino]thiourea]
≥ 75%: mortality at 500 ppm [3] | mortality at 800 ppm [4] | mortality at 800 ppm [1] | mortality at 800 ppm [5]

FC(F)(F)Oc1ccc(-n2cnc3c4ccc(/C=N/NC(=S)Nc5c(Br)cccc5Br)cc4ccc32)cc1 [C-66, 1-(2,6-dibromophenyl)-3-[(E)-[3-[4-(trifluoromethoxy)phenyl]benzo[e]benzimidazol-7-yl]methyleneamino] thiourea]
≥ 75%: mortality at 500 ppm [3] | mortality at 800 ppm [4] | mortality at 800 ppm [1] | mortality at 800 ppm [5] | mortality at 500 ppm [2]

FC(F)(F)Oc1ccc(-n2cnc3c4ccc(/C=N/NC(=S)Nc5ccccc5Br)cc4ccc32)cc1 [C-67, 1-(2-bromophenyl)-3-[[3-[4-(trifluoromethoxy)phenyl]-5H-benzo[e]benzimidazol-7-ylidene]methylimino] thiourea]
≥ 75%: mortality at 500 ppm [3] | mortality at 800 ppm [4] | mortality at 800 ppm [1] | mortality at 800 ppm [5]

CCc1cccc(C)c1NC(=S)N/N=C(\C)c1ccc2c(ccc3c2ncn3-c2ccc(OC(F)(F)F)cc2)c1 [C-82, 1-(2-ethyl-6-methyl-phenyl)-3-[(E)-1-[3-[4-(trifluoromethoxy)phenyl]benzo[e]benzimidazol-7-yl]ethylideneamino]thiourea]
≥ 75%: mortality at 500 ppm [3] | mortality at 500 ppm [2]

Cc1cccc(C)c1NC(=S)N/N=C/c1ccc2c(ccc3c(-c4ccc(OC(F)(F)F)cc4)snc32)c1 [C-88, 1-(2,6-dimethylphenyl)-3-[(E)-[3-[4-(trifluoromethoxy)phenyl]benzo[g][2,1]benzothiazol-7-yl]methyleneamino] thiourea]
≥ 75%: mortality at 800 ppm [5] | mortality at 800 ppm [6]

Cc1cccc(Cl)c1NC(=S)N/N=C/c1ccc2c(ccc3c(-c4ccc(OC(F)(F)F)cc4)n(C)nc32)c1 [C-91, 1-(2-chloro-6-methyl-phenyl)-3-[(E)-[2-methyl-3-[4-(trifluoromethoxy)phenyl]benzo[g]indazol-7-yl]methyleneamino] thiourea]
≥ 75%: mortality at 500 ppm [3] | mortality at 800 ppm [4] | mortality at 800 ppm [1] | mortality at 800 ppm [5]

Cn1nc2c(ccc3cc(/C=N/NC(=S)Nc4c(Br)cccc4Br)ccc32)c1-c1ccc(OC(F)(F)F)cc1 [C-98, 1-(2,6-dibromophenyl)-3-[(E)-[2-methyl-3-[4-(trifluoromethoxy)phenyl]benzo[g]indazol-7-yl]methyleneamino] thiourea]
≥ 75%: mortality at 500 ppm [3] | mortality at 800 ppm [4] | mortality at 800 ppm [1] | mortality at 800 ppm [5]

Cn1nc2c(ccc3cc(/C=N/NC(=S)Nc4c(Cl)cccc4Cl)ccc32)c1-c1ccc(OC(F)(F)F)cc1 [C-99, 1-(2,6-dichlorophenyl)-3-[(E)-[2-methyl-3-[4-(trifluoromethoxy)phenyl]benzo[g]indazol-7-yl]methyleneamino]thiourea]
≥ 75%: mortality at 800 ppm [4] | mortality at 800 ppm [1] | mortality at 800 ppm [5] | mortality at 500 ppm [2]

Cc1cccnc1NC(=S)N/N=C/c1ccc2c(ccc3c(-c4ccc(OC(F)(F)F)cc4)n(C)nc32)c1 [C-101, 1-(3-methyl-2-pyridyl)-3-[(E)-[2-methyl-3-[4-(trifluoromethoxy)phenyl]benzo[g]indazol-7-yl]methyleneamino]thiourea]
≥ 75%: mortality at 500 ppm [3] | mortality at 800 ppm [4] | mortality at 800 ppm [1] | mortality at 800 ppm [5] | mortality at 500 ppm [2]
